Measurements reported in US6080772A, “Thiazole compounds and methods of modulating signal transduction” (Sugen, Inc., priority 1997, dated 2000).

System: insulin receptor (IR)
Assay: Phosphotyrosine enzyme linked immunosorbent assay: pTyr on insulin receptor in NIH3T3 cells over-expressing human IR (H25 cells)
Conditions: read-out: ACTIVITY EC50; Table III; […]

SMILES | EC50 [µM]
O=[N+]([O-])c1cnc(Sc2nnnn2Cc2ccccc2)s1 [Compound 80, 1-Benzyl-5-[(5-nitrothiazol-2-yl)mercapto]tetrazole] | 7.8
Cc1ccc(Cl)cc1Nc1nnc(Sc2ncc([N+](=O)[O-])s2)s1 [Compound 77, 2-(5-Chloro-2-methylphenylamino)-5-[(5-nitrothiazol-2-yl)mercapto]-1,3,4-thiadiazole] | 5
Nc1ccc(-n2nnnc2Sc2ncc([N+](=O)[O-])s2)cc1 [Compound 29, 1-(4-Aminophenyl)-5-[(5-nitrothiazol-2-yl)mercapto]tetrazole] | > 100
O=CNc1nnc(Sc2ncc([N+](=O)[O-])s2)s1 [Compound 22, 2-Formamido-5-[(5-nitrothiazol-2-yl)mercapto]-1,3,4-thiadiazole] | 29
Nc1nnc(Sc2ncc([N+](=O)[O-])s2)s1 [Compound 38, 2-Amino-5-[(5-nitrothiazol-2-yl)mercapto]-1,3,4-thiadiazole] | 15.6
CCOC(=O)c1nc(Sc2ncc([N+](=O)[O-])s2)n(C2CCCCC2)c1C(=O)OCC [Compound 47, 1-Cyclohexyl-4,5-di(ethoxycarbonyl)-2-[(5-nitrothiazol-2-yl)mercapto]imidazole] | 15.7
Cn1c(=O)n(C)c2nc(Sc3ncc([N+](=O)[O-])s3)ncc21 [Compound 36, 1,3-Dimethyl-5-[(5-nitrothiazol-2-yl)mercapto]imidazo[4,5-d]pyrimid-2-one] | > 100
Cn1c(Sc2ncc([N+](=O)[O-])s2)nc2cc(C(F)(F)F)cnc21 [Compound 53] | > 25
Cc1nc2nc(Sc3ncc([N+](=O)[O-])s3)[nH]c2cc1Br [Compound 19] | > 100
Cc1ccc2nc(Sc3ncc([N+](=O)[O-])s3)[nH]c2c1 [Compound 50, 5-Methyl-2-[(5-nitrothiazol-2-yl)mercapto]benzimidazole] | > 100
COc1ccccc1Nc1nnc(Sc2ncc([N+](=O)[O-])s2)s1 [Compound 76, 2-(2-Methoxyphenylamino)-5-[(5-nitrothiazol-2-yl)mercapto]-1,3,4-thiadiazol] | 63.8
O=C(Sc1nnc(Sc2ncc([N+](=O)[O-])s2)s1)c1ccccc1 [Compound 65, 2-Benzoylmercapto-5-[(5-nitrothiazol-2-yl)mercapto]-1,3,4-thiadiazole] | > 25
O=[N+]([O-])c1cnc(Sc2nnc(Nc3ccccc3Cl)s2)s1 [Compound 81, 2-(2-Chlorophenylamino)-5-[(5-nitrothiazol-2-yl)mercapto]-1,3,4-thiadiazole] | 34
CCCCSc1nnc(Sc2ncc([N+](=O)[O-])s2)s1 [Compound 23, 2-n-Butylmercapto-5-[(5-nitrothiazol-2-yl)mercapto]-1,3,4-thiadiazole] | > 100
O=C1CCCc2nc(Sc3ncc([N+](=O)[O-])s3)ncc21 [Compound 68, 2-[(5-Nitrothiazol-2-yl)mercapto]cyclohexylpyrimid-5-one] | > 100
CCOc1ccc(OCC)c2[nH]c(Sc3ncc([N+](=O)[O-])s3)nc12 [Compound 46, 4,7-Diethoxy-2-[(5-nitrothiazol-2-yl)mercapto]benzimidazole] | 9.7
O=[N+]([O-])c1cnc(Sc2nnc(Nc3ccccc3)s2)s1 [Compound 73, 2-[(5-Nitrothiazol-2-yl)mercapto]-5-phenylamino-1,3,4-thiadiazole] | 10
CCOC(=O)CSc1nnc(Sc2nnc(Sc3ncc([N+](=O)[O-])s3)s2)s1 [Compound 25, 2-[(Ethoxycarbonyl)methylmercapto]-5-[[2-[(5-nitrothiazol-2-yl)mercapto]-1,3,4-thiadiazol-5-yl]mercapto]-1,3,4-thiadiazole] | 48
O=C(CSc1nnc(Sc2ncc([N+](=O)[O-])s2)s1)Oc1ccccc1 [Compound 24, 2-[(5-Nitrothiazol-2-yl)mercapto]-5-[(phenoxycarbonyl)methylmercapto]-1,3,4-thiadiazole] | > 100
